# According to paper PMC10893061, “Novel 2,5-Diketopiperazines with In Vitro Activities against Protozoan Parasites of Tropical Diseases” (Pharmaceuticals, 2024):
# Like-named read-outs stand apart in the source and are kept apart here.
# Legend:
# Plasmodium = tested on: Plasmodium; design: method as in doi:10.1016/j.tetlet.2016.11.071; details: read-out: IC50 anti-plasmodial activity; cited from earlier work
# [1] = tested on: T. cruzi Tulahuen strain in L929 cells; test: Anti-Trypanosoma cruzi activity assay (infected L929 cells, beta-galactosidase reporter); format: cell-based; details: for Status: T. cruzi, activity status from IC50 and SI; for IC50: Trypanosoma cruzi, T. cruzi Tulahuen in L929 cells, 96 h
# Procedure: (§1) Their half-maximum cytotoxic concentrations (CC50) and their selectivity indices (SI), obtained as the ratio of the cytotoxic concentration against the bioactive concentration are shown in Table 2. Theoretically, the higher the SI value, the greater the effectiveness for the target and the lower the toxicity of the compound, characterizing a potentially safe and selective drug.
# The in vitro anti-T. cruzi activity was evaluated on L929 cells (mouse fibroblasts) infected with Tulahuen strain of the parasite expressing the Escherichia coli β-galactosidase as reporter gene according to the method described previously. Briefly, four thousand L929 cells were added to each well of a 96-well microtiter plate. After an overnight incubation, a 10 fold excess of trypomastigotes were added to the cells, incubated for 2 h, then replaced with 200 μL of fresh medium and incubated for additional 48 h to establish the infection. For IC50 determination, the cells were exposed to each synthesized compound at serial decreasing dilutions and the plate was incubated for 96 h. Afterwards, 50 μL of 500 μM chlorophenol red beta-D-galactopyranoside (CPRG) in 0.5% Nonidet P40 was added to each well, and the plate incubated for 16 to 20 h, after which the absorbance at 570 nm was measured. Controls with uninfected cells, untreated infected cells, infected cells treated with benznidazole at 3.8 μM (positive control) or 1% DMSO were used. The results were expressed as the percentage of T. cruzi growth inhibition in compound tested cells as compared to the infected cells and untreated cells. The IC50 values were calculated by linear interpolation. Quadruplicates were run in the same plate, and the experiments were repeated at least once.
# (§2) IC50 over T. cruzi and L929 cells were determined by linear interpolation and the selectivity index (SI) was calculated by the ratio of CC50 L929 cells/ IC50 T. cruzi.
# [2] = Cytotoxicity on L929 cells (AlamarBlue); format: cell-based; details: mouse, L929 mouse fibroblast cells
# Procedure: The medium was then replaced, and the cells were exposed to compounds at increasing concentrations starting at IC50 value for T. cruzi. After 96 h of incubation with the compounds, AlamarBlue^TM was added and the absorbance at 570 and 600 nm was measured after 4–6 h. Controls with untreated and DMSO 1%-treated cells were run in parallel. The results were expressed as the percent difference in the reduction between treated and untreated cells. The compound concentration that inhibits 50% of the L929 cell viability (CC50) was determined. Quadruplicates were run in the same plate and the experiments were repeated at least once.
# as §2
# [3] = tested on: Leishmania infantum (MHOM/BR/1974/PP75) in THP-1 macrophages; test: Anti-Leishmania infantum activity assay (infected THP-1 macrophages, red fluorescence); format: cell-based; details: for Status: L. infantum, activity status from IC50 and SI; for IC50: Leishmania infantum, L. infantum in THP-1 macrophages, 72 h
# Procedure: as §1
# Cells derived from the human monocytic strain THP-1 were cultured in complete Rowell Park Memorial Institute (RPMI)-1640 medium (supplemented with 10% fetal bovine serum, 100 U/mL penicillin, and 100 μg/mL streptomycin). Monocytes were differentiated into macrophages by the addition of 20 ng/mL phorbol myristate acetate (PMA). […] The IC50 values were determined by non-linear regression using a variable slope model (log[concentration] vs. growth inhibition) with the GraphPad Prism v8.2.0 (Boston, MA, USA) software. Controls with uninfected cells, untreated infected cells, infected cells treated with amphotericin B at 0.25 μM (positive control) or DMSO 1% were used. Quadruplicates were run in the same plate, and the experiments were repeated at least once.
# [4] = Cytotoxicity on THP-1 derived macrophages (AlamarBlue); format: cell-based; details: human, THP-1 cells differentiated into macrophages, THP-1 macrophages
# Procedure: For the cytotoxicity assay, human monocytic THP-1 cells were differentiated into macrophages in 96-well microtiter plates for 72 h, as described above. The medium was then replaced, and the cells were exposed to the compounds at increasing concentrations starting at IC50 value for each Leishmania spp. line. After 72 h of incubation with the compounds, AlamarBlue™ was added and the absorbance at 570 and 600 nm was measured after 4 h. Controls with untreated and DMSO 1%-treated cells were run in parallel. The results were expressed as the percentual difference in the reduction between treated and untreated cells. The compound concentration that inhibits 50% of the THP-1 cell viability (CC50) was determined. The CC50 values were determined by non-linear regression using a variable slope model (log(concentration) vs. growth inhibition) with the GraphPad Prism v8.2.0 (CA, USA) software. Triplicates were run in the same plate and the experiments were repeated at least once.
# [5] = tested on: P. falciparum chloroquine-resistant and mefloquine-sensitive W2 clone; test: Anti-Plasmodium falciparum activity assay (SYBR, erythrocytic asexual stages); format: cell-based; details: for Status: P. falciparum, activity status from IC50 and SI
# Procedure: In vitro assay with P. falciparum culture were performed as described previously. […] The activity was measured using the SYBR assay with the parasite suspension (0.5% parasitemia and 2% hematocrit) with minor modifications. The test compounds, in serial dilutions, were incubated in “U” bottom 96-wells plates. After 48 h at 37 °C, the culture supernatant was removed and replaced by 100 µL of lysis buffer solution [Tris (20 mM; pH 7.5), EDTA (5 mM), saponin (0.008%; wt/vol), and Triton X 100 (0.08%; vol/vol)] followed by addition of 0.2 µL/mL SYBR Safe (Sigma-Aldrich, Carlsbad, CA, USA). The plate content was transferred to a flat bottom plate and incubated in the dark for 30 min. The plate was read in a fluorometer (Synergy H4 Hibrid Reader, Biotek) with excitation at 485 nm and 535 nm of emission. In all tests, the compound activities were expressed by the 50% inhibitory concentration of the parasite growth (IC50) when compared to the drug-free controls and estimated using the curve-fitting software Origin 8.0 (OriginLab Corporation, Northampton, MA, USA).
# [6] = Cytotoxicity, neutral red uptake assay on BGM cells; format: cell-based; details: BGM monkey kidney cells
# Procedure: The BGM cells were incubated with 20 µL of the drugs at different concentrations (≤1000 µg/mL) for 24 h in a 5% CO2 at 37 °C. The neutral red uptake assay was used to evaluate the lysosomal integrity and distinguishes live cells from dead by its ability to incorporate the dye. Briefly, to each well was added 0.2 mL medium containing 50 µg/mL of neutral red solution. The plate was incubated for another 3 h at 37 °C to allow for the uptake of the vital dye into the lysosomes of viable uninjured cells. After removal of medium, 200 µL of a mixture of 0.5% formaldehyde-1% CaCl2 was added to the cells and incubated by 5 min. The supernatant was removed and 100 µL of a solution of 1% acetic acid-50% ethanol was added to each well to extract the dye. After homogenization, the optical density of each well of the plate was measured using a 540 nm wavelength on a spectrophotometer. This absorbance has shown a linear relationship with the number of surviving cells. The cell viability was expressed as the percentage of control absorbance obtained from the untreated cells after subtracting the appropriate background.
# [7] = Plasmodium falciparum, W2, 48 h, P. falciparum W2 clone, 48 h, SYBR, read-out: IC50
# [8] = P. falciparum W2 clone, 48 h, SYBR
Compound,Status [1],IC50 [1] [µg/mL],CC50 at 96 h [2] [µg/mL],Status [3],IC50 [3] [µg/mL],"IC50 [5, 7] [µg/mL]",other results
Naseseazine C,,,,,,,IC50 (Plasmodium): 3.5 µM
O=C1C(c2c(F)cccc2Cl)N(c2ccccc2)C(=O)CN1c1ccc(Cl)cc1 (centres unmarked) [Compound 22],ACTIVE,7.2 ± 0.9,> 400,,,,
O=C1C(c2ccc(O)cc2)N(c2ccccc2)C(=O)CN1c1ccc(Cl)cc1 (centres unmarked) [Compound 14],,,,ACTIVE,8.3 ± 0.2,,CC50 at 72 h [4]: 611 ± 1 µg/mL
COc1ccc(N2CC(=O)N(c3ccc(OC)cc3)C(c3ccccc3)C2=O)cc1 (centres unmarked) [Compound 13],inactive,22.3 ± 1.1,,,,,
CN(C)c1ccc(C2C(=O)N(c3ccc(Cl)cc3)CC(=O)N2c2ccccc2)cc1 (centres unmarked) [Compound 3],,,,inactive,49.1 ± 1.6,,
CC(=O)Nc1ccc(C2C(=O)N(c3ccc(Cl)cc3)CC(=O)N2c2ccccc2)cc1 (centres unmarked) [Compound 7],,,,part. ACTIVE (20 > IC50 > 10 µg/mL partially active),16 ± 1,,CC50 at 72 h [4]: 679 ± 1 µg/mL
O=C1C(c2cccc(Cl)c2)N(c2ccccc2)C(=O)CN1c1ccc(Cl)cc1 (centres unmarked) [Compound 10],,,,,,28.1 ± 0.3,Status [5]: inactive
COc1ccc(C2C(=O)N(c3ccc(Cl)cc3)CC(=O)N2c2ccccc2)cc1Br (centres unmarked) [Compound 8],ACTIVE,7.3 ± 1.5,> 400,,,,
"O=C(Cn1ccnc1[N+](=O)[O-])NCc1ccccc1 [Benznidazole, reference compound]",,0.5 ± 0.1,540,,,,
O=C1C(c2ccc(F)cc2)N(c2ccccc2)C(=O)CN1c1ccc(Cl)cc1 (centres unmarked) [Compound 11],,,,inactive,38.2 ± 1.8,,
CCc1ccc(C2C(=O)N(c3ccc(Cl)cc3)CC(=O)N2c2ccccc2)cc1 (centres unmarked) [Compound 2],,,,inactive,> 100,,
O=C1C(c2ccccc2F)N(c2ccc(F)cc2)C(=O)CN1c1ccc(Cl)cc1 (centres unmarked) [Compound 20],"toxic (selectivity index = CC50/IC50, values < 10 are considered toxic)",15.4 ± 3,32.1,,,17.6 ± 1.3,CC50 at 24 h [6]: 9.4 ± 5.1 µg/mL
O=C1C(c2ccc(Cl)cc2)N(c2ccc(F)cc2)C(=O)CN1c1ccc(Cl)cc1 (centres unmarked) [Compound 21],"toxic (selectivity index = CC50/IC50, values < 10 are considered toxic)",16.1 ± 2,16.8,,,≥ 50,Status [5]: inactive
O=C1C(c2ccccc2F)N(c2ccc(Br)cc2)C(=O)CN1c1ccc(Cl)cc1 (centres unmarked) [Compound 19],,,,,,< 10,"IC50 [5, 8]: 5.4 ± 1.7 µg/mL; Status [5]: ACTIVE; IC50 ([5]; Plasmodium falciparum, W2, P. falciparum, corresponds to 5.4 µg/mL, read-out: IC50 (converted to µM)): 12.6 µM; CC50 at 24 h [6]: 110 ± 11.3 µg/mL"
"CCN(CC)CCCC(C)Nc1ccnc2cc(Cl)ccc12 (centres unmarked) [Chloroquine, reference compound]",,,,,,,"IC50 ([5]; Plasmodium falciparum, W2, 48 h): 0.174 ± 0.055 µg/mL"
O=C1C(c2ccc(Cl)cc2)N(c2ccccc2)C(=O)CN1c1ccc(Cl)cc1 (centres unmarked) [Compound 4],,,,inactive,35.7 ± 0.8,,
COc1ccc(OC)c(C2C(=O)N(c3ccc(Cl)cc3)CC(=O)N2c2ccccc2)c1 (centres unmarked) [Compound 9],,,,inactive,50.8 ± 1.1,,
O=C1C(c2ccccc2F)N(c2ccccc2)C(=O)CN1c1ccc(Cl)cc1 (centres unmarked) [Compound 5],"toxic (selectivity index = CC50/IC50, values < 10 are considered toxic)",9.3 ± 0.1,29.2,,,15.6 ± 2.6,CC50 at 24 h [6]: ≤ 3.1 µg/mL
O=C1C(c2ccc(O)c(Br)c2)N(c2ccccc2)C(=O)CN1c1ccc(Cl)cc1 (centres unmarked) [Compound 15],"toxic (selectivity index = CC50/IC50, values < 10 are considered toxic)",11.2 ± 6,81.8,,,14.9 ± 0.7,"Status [5]: toxic (selectivity index = CC50/IC50, values < 10 are considered toxic); CC50 at 24 h [6]: 18.5 ± 3.4 µg/mL"
"C[C@@H]1[C@H](O)[C@@H](C)/C=C/C=C/C=C/C=C/C=C/C=C/C=C/[C@H](O[C@@H]2O[C@H](C)[C@@H](O)[C@H](N)[C@@H]2O)C[C@@H]2O[C@](O)(C[C@@H](O)C[C@@H](O)[C@H](O)CC[C@@H](O)C[C@@H](O)CC(=O)O[C@H]1C)C[C@H](O)[C@H]2C(=O)O [Amphotericin B, reference compound]",,,,,0.228 ± 0.025,,CC50 at 72 h [4]: 367 ± 1 µg/mL
O=C1C(c2ccccc2F)N(c2ccc(Cl)cc2)C(=O)CN1c1ccc(Cl)cc1 (centres unmarked) [Compound 17],,,,,,< 10,"IC50 [5, 8]: 9.5 ± 2.1 µg/mL; Status [5]: ACTIVE; CC50 at 24 h [6]: 139 ± 18.7 µg/mL"
